Structures are written as SMILES. Where only a bound is given, the exact number is not on record here.

One experiment addresses T1, rat TAAR1 (Rattus norvegicus, UniProt Q923Y9).
T1 construct: expressed in transfected cells; host or cells: HEK 293 (membrane preparation)
Put plainly: Radioligand binding, rat TAAR1 ([3H]RO5166017).

The target of a further experiment is T2, human TAAR1 (Homo sapiens, UniProt Q96RJ0).
T2 construct: expressed in transfected cells; host or cells: HEK 293 (recombinant, Geneticin/hygromycin B selection)
T2 sequence (Q96RJ0 1-339): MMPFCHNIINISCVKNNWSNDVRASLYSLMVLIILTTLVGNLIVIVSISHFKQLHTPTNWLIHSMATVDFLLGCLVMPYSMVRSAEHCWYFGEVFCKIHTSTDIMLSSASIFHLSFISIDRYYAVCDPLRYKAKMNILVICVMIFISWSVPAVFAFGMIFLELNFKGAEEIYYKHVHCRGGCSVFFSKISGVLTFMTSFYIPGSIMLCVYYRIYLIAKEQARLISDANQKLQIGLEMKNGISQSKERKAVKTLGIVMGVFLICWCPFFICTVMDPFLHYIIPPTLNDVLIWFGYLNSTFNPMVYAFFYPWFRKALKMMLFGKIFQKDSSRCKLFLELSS
The experiment can be described thus: Activity at the human TAAR1 (cAMP, HEK 293 cells). The class given is cell-based. Conditions: human TAAR1 EC50 ± SD. As to the method: Activity at the human TAAR1 was examined as previously described in full detail ([Luethi et al., 2018]). In summary, human TAAR1 expressing recombinant HEK 293 cells were grown in 250 ml falcon culture flasks containing 30 ml of high glucose DMEM (10% heat inactivated fetal calf serum, 500 µg/ml Geneticin [Gibco, Zug, Switzerland] and 500 µg/ml hygromycin B) at 37°C and 5% CO2/95% air. At 80-90% confluency, the cells were collected. The medium was aspirated, cells were washed with phosphate-buffered saline (PBS) and then trypsinized for 5 min at 37°C with 5 ml of trypsin/EDTA solution. Next, 45 ml of medium was added and the mixture was transferred into a falcon tube. After centrifugation (900 rpm, 3 min, RT), the supernatant was aspirated and the remaining cell pellet was resuspended in fresh medium to […]. Using a multipipette, 100 µl of cells were transferred (80,000 cells/well) into a 96-well plate (BIOCOAT 6640, Becton Dickinson, Allschwil, Switzerland) and incubated for 20 h at 37°C. For the cAMP assay, the medium was aspirated replaced with 50 µL PBS without Ca^2+ and Mg^2+ ions. The PBS was then extracted using snap inversion and the plate was softly tapped against tissue; 90 µL of Krebs-Ringer Bicarbonate buffer (Sigma-Aldrich) containing 1 mM IBMX was added and incubated for 60 min at 37°C and 5% CO2/95% air. A concentration range between 300 pM and 30 µM of test compounds was examined in duplicate. A standard curve with a range of cAMP concentrations (0.13 nM to 10 µM) was created per 96-well plate. Each experiment was accompanied with a reference plate that included three compounds; RO5256390, β-phenylethylamine, and p-tyramine. The cells were exposed to either 30 µl of compound solution, 30 µl of β-phenylethylamine (as maximal response), or a basal control in PBS (containing 1 mM IBMX) for 40 min at 37°C. Next, under forceful shaking using black lids, the cells were exposed to 50 µl of 3x detection mix solution (composed of Ru-cAMP Alexa700 anti-cAMP antibody and lysis buffer) for 120 min at room temperature in order to lyse the cells. Using the NanoScan reader (Innovative Optische Messtechnik, Berlin, Germany; 456 nm excitation wavelength; 630 and 700 nm emission wavelengths), the fluorescence was examined and the fluorescence resonance energy transfer (FRET) signal was determined using the following equation; FRET (700 nm) − P × FRET (630 nm), where P = Ru (700 nm)/Ru (630 nm). Receptor binding affinity at the human TAAR1 was not determined since unfortunately, there are no suitable radioligands available for this receptor.
Functional activity of the derivatives was only examined at the human TAAR1 and not at the mouse and rat TAAR1, because functional assays are not set up.

A further experiment deals with T3, mouse TAAR1 (Mus musculus, UniProt Q923Y8).
T3 construct: expressed in transfected cells; host or cells: HEK 293 (membrane preparation)
T3 sequence (Q923Y8 whole entry): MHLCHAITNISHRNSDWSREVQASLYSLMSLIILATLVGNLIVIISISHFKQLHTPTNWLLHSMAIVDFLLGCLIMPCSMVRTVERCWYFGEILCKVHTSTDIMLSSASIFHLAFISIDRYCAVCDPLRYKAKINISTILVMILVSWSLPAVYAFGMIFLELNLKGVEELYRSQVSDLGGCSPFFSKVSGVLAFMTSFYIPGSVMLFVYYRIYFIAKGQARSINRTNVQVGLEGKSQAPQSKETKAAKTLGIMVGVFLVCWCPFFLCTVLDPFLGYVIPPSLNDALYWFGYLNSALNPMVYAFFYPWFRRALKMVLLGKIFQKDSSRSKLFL
The experiment can be described thus: Radioligand binding, mouse TAAR1 ([3H]RO5166017).

The target in a further experiment is T4, 5-HT1A receptor (Homo sapiens, UniProt P08908).
T4 construct: expressed in transfected cells; host or cells: HEK 293 (membrane preparation)
T4 sequence (P08908 1-422): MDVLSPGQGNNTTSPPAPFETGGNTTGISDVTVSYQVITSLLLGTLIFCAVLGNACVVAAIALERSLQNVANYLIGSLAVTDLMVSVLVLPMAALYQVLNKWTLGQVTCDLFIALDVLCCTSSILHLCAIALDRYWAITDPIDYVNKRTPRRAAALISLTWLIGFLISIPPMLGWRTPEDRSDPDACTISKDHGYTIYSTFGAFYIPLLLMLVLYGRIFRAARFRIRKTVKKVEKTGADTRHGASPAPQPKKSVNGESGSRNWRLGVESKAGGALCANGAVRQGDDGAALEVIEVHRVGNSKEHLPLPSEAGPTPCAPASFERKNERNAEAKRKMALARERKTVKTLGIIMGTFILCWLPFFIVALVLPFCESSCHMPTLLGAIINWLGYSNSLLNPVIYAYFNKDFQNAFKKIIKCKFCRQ
Put plainly: Radioligand binding, 5-HT1A receptor ([3H]8-OH-DPAT).

In the next experiment the target is T5, 5-HT2C receptor (Homo sapiens, UniProt P28335).
T5 construct: expressed in transfected cells; host or cells: HEK 293 (membrane preparation)
T5 sequence (P28335 33-458): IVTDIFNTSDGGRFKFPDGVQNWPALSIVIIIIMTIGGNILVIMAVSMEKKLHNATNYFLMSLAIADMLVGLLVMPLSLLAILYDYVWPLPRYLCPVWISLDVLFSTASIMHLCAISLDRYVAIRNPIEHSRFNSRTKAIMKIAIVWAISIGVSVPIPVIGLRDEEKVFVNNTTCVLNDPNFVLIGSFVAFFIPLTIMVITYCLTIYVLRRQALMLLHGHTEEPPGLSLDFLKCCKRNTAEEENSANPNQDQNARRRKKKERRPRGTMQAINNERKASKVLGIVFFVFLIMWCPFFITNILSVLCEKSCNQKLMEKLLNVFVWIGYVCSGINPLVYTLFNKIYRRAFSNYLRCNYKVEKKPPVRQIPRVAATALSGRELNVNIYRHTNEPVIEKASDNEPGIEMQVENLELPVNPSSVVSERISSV
Put plainly: biochemical. The class given is binding. The conditions noted are these: [3H]mesulgerine; read-out: h5-HT2C Receptor binding Ki ± SD.

A further experiment has as its target hSERT (Homo sapiens, UniProt P31645). Put plainly: Radioligand binding, SERT ([3H]citalopram). Details: expressed in transfected cells; host or cells: HEK 293 (membrane preparation).
Another experiment deals with T6, dopaminergic D2 receptor (Homo sapiens, UniProt P14416).
T6 construct: expressed in transfected cells; host or cells: HEK 293 (membrane preparation)
T6 sequence (P14416 whole entry): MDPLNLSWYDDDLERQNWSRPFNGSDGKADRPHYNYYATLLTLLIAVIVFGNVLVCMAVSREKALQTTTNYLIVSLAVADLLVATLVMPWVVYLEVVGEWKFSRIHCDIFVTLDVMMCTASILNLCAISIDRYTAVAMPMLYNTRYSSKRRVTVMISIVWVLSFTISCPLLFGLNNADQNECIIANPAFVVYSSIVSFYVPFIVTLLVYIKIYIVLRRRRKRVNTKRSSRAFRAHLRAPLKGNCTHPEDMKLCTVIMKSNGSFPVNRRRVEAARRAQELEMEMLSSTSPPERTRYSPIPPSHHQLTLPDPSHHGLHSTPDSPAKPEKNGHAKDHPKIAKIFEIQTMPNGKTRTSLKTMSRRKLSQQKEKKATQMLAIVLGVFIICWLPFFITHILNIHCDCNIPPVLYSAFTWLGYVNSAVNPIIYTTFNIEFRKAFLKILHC
The experiment can be described thus: Radioligand binding, dopaminergic D2 receptor ([3H]spiperone).

The target in another experiment is hNET (Homo sapiens, UniProt P23975). Put plainly: Radioligand binding, NET (N-methyl-[3H]nisoxetine). Details: expressed in transfected cells; host or cells: HEK 293 (membrane preparation).
Chain of hNET (P23975 whole entry): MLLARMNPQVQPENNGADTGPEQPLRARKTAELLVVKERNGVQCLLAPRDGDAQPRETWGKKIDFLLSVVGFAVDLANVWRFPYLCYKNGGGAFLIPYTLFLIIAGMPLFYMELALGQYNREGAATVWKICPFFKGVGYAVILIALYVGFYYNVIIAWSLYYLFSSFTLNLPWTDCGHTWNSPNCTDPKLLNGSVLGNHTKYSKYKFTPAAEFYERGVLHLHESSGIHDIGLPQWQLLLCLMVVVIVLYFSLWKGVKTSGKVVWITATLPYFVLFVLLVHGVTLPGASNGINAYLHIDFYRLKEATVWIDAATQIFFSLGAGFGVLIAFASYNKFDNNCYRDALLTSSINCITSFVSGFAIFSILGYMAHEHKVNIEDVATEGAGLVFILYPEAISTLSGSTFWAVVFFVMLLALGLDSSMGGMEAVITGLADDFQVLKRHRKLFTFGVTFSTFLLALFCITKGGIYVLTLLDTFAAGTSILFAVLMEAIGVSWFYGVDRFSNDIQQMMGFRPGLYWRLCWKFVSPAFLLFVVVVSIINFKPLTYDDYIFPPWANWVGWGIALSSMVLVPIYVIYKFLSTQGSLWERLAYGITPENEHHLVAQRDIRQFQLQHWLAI

T1 sequence (Q923Y9 whole entry): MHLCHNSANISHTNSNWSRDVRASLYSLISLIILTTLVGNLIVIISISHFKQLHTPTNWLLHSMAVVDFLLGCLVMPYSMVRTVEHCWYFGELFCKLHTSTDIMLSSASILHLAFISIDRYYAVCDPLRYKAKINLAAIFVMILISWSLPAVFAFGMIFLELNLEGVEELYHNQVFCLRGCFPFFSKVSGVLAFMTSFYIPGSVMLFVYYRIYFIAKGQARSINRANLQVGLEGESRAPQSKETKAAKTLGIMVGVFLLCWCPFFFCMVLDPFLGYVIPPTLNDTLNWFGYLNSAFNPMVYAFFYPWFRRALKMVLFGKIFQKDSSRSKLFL
Chain of hSERT (P31645 whole entry): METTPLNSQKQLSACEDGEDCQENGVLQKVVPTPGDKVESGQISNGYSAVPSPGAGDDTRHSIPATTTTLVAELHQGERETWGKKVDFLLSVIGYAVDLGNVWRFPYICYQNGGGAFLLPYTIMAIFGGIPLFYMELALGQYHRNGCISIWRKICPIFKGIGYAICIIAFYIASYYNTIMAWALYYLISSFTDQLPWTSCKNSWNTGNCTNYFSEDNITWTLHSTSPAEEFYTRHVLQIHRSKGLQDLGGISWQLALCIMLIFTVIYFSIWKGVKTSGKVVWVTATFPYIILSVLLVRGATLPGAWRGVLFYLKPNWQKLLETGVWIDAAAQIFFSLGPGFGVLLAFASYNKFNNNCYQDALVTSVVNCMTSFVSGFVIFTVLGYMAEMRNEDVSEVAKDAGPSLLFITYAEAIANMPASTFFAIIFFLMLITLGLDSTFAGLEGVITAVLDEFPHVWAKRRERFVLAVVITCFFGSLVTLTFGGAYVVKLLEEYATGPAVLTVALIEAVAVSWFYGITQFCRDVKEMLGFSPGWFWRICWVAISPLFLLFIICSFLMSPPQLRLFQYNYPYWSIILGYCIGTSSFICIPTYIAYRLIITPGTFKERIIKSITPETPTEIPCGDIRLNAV

As for `COc1cc(OCCF)c(OC)cc1CCN` [2C-O-21, 2,5-dimethoxy-4-(2-fluoroethoxy)phenethylamine], the Ki at rat TAAR1 was 0.41 ± 0.04 µM; on mouse TAAR1, over 4.9 µM; on 5-HT1A receptor it was 5.5 µM; on 5-HT2C receptor, 3.6 ± 1.9 µM; on hSERT, over 8.6 µM; on dopaminergic D2 receptor, over 4.8 µM. The molecule further gave a Ki on hNET of over 9.7 µM. The 50% effective concentration (EC50) at human TAAR1 is over 30 µM.

As usually defined, the Ki is a dissociation constant, usually derived from enzyme kinetics or from competition with a known ligand. Usually EC50 stands for the concentration that produces a half-maximal response. A high value points to weaker potency.
